The values below come from patent EP0505937A1, “Flavone derivatives, a process for the preparation thereof and pharmaceutical compositions containing them” (GEYMONAT S.p.A., priority 1991, dated 1992).

In this assay the target is T1, porcine pancreatic elastase (Sus scrofa, UniProt P00772).
T1 construct: purchased Sigma n.E. 0.127
Kind of assay: antielastase activity (method of Bieth and coll., cleavage of N-succinyl-L-alanyl-L-alanyl-L-alanyl-para-nitroanilide, UV at 410 nm). Type of assay: biochemical. The method, then: The antielastase activity of compounds (I) was evidenced by the method described by Bieth and coll. (Biochim. med. [formula] 350 (1974)), with slight changes when the test compounds were poorly water-soluble.
The determination of the antielastase activity was carried out using porcine pancreatic elastase (90 U/mg/weight; 120 U/mg protein-biuret-n.E. 0.127 Sigma) as the enzyme in solution. The enzyme-containing solution was prepared dissolving the enzyme in 0,2 M phosphate buffer, pH 8, to a final concentration of 1 microgram/ml.
The substrate solution was N-succinyl-L-alanyl-L-alanyl-L-alanyl-para-nitroanilide (available from Sigma cat. N.S. 4760). The substrate was dissolved in dimethylsulfoxide to a concentration of […] (125 mM).
The procedure to determine the antielastase activity consisted of the following steps: • 2,9 ml of the enzyme solution with antielastase activity were placed into a quartz cuvette with 10 mm optical path, then 0,5 ml of bidistilled water were added. This standard solution was subsequently added with the different solutions of the various inhibitors.
The test solutions (standard and standard + inhibitor) were incubated at 30°C for 10', then 20 µl of substrate were added and the solution in the cuvette was stirred. The UV spectrum was recorded at 410 nm for 10' with a Beckman mod. 24 spectrophotometer against a blank consisting of the same enzyme-free standard solution.

Setting [1] is: enzyme 1 microgram/ml in 0,2 M phosphate buffer, pH 8, incubated at 30°C for 10', read-out: I₅₀ (converted).

Read-outs that look alike come from different tables or passages of the source.

T1 sequence (P00772 27-266): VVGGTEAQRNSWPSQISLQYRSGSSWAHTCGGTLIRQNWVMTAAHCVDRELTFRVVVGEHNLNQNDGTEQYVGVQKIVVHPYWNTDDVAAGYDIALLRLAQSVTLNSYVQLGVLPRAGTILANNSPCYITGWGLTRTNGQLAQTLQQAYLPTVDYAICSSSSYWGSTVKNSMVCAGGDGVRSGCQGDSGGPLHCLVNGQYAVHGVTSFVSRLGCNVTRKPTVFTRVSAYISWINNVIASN

For the compound `C[C@@H]1O[C@@H](OC[C@H]2O[C@@H](Oc3c(-c4ccc(O)c(O)c4)oc4cc(O)cc(O)c4c3=O)[C@H](O)[C@@H](O)[C@@H]2O)[C@H](O)[C@H](O)[C@H]1O` [Rutin], the IC50 under setting [1] is 983 µM.

For the compound `COc1ccc([C@@H]2CC(=O)c3c(O)cc(O[C@@H]4O[C@H](CO[C@@H]5O[C@@H](C)[C@H](O)[C@@H](O)[C@H]5O)[C@@H](O)[C@H](O)[C@H]4O)cc3O2)cc1O` [Esperidin], the IC50 is 934 µM.

On to `COc1ccc(-c2cc(=O)c3c(O)cc(O[C@@H]4O[C@H](CO[C@@H]5O[C@@H](C)[C@H](O)[C@@H](O)[C@H]5O)[C@@H](O)[C@H](O)[C@H]4O)cc3o2)cc1OCCO` [Hydrosmin, 3'-hydroxyethyldiosmin], for which, under setting [1], the IC50 was 955 µM.

With `COc1ccc(-c2cc(=O)c3c(O)cc(O[C@@H]4O[C@H](CO[C@@H]5O[C@@H](C)[C@H](O)[C@@H](O)[C@H]5O)[C@@H](O)[C@H](O)[C@H]4O)cc3o2)cc1O` [Diosmin], the antielastase activity entry (at the minimum concentration obtained (about 10 mg/ml)) is “absence of any antielastase activity”.
